Laboratory results as given in US20240252476A1, “LPA1 ANTAGONISTS FOR TREATING INTERSTITIAL LUNG DISEASE” (Bristol-Myers Squibb Company, priority 2022, published 2024).

Key:
[1] = Effect of single and multiple ascending doses of Compound B on blood pressure; assay type: in vivo
Source text: and is described in U.S. Patent Application Publication No. 2010/0311799. Single ascending dose of Compound B caused a drop in blood pressure starting ˜1.25 hr post dose (FIG. 5).

patients with IPF = details: cited from earlier work
patients with PPF = details: 52-week study period; cited from earlier work
[2] = Phase 1 multiple ascending dose study (Part B), blood pressure in healthy participants; assay type: in vivo, human; details: MAD, 14-day treatment period
Protocol: (§1) The study was performed in 3 parts in 112 healthy male and female participants, including 24 Japanese participants. Female participants were to be not of childbearing potential. The present study was designed to evaluate the safety and tolerability, PK, and exploratory PD of an oral suspension of Compound A. Parts A and B (Cohort B1 only) enrolled healthy participants and was conducted at a site in The Netherlands and Part B (Cohort B2 to B5) enrolled healthy non-Japanese participants and was conducted at a site in the United Kingdom (UK). Part C enrolled healthy Japanese participants and was conducted at the same site in the UK.
Part B was a MAD study in a planned number of 6 sequential dose escalation cohorts (10 mg QD, 30 mg QD, 30 mg BID, 60 mg BID, 125 mg BID, and ≤250 mg BID) of 8 healthy participants (6 active+2 placebo) each, under fasted conditions. However, Cohort B6 (≤250 mg BID) was cancelled because sufficient safety and PK data had been obtained at doses up to 125 mg BID. […]
Physical examinations, vital sign measurements (including orthostasis testing in Cohort A6, Cohort B3 to B5, and C1 to C3 at selected time points), 12-lead electrocardiogram (ECG), and clinical laboratory evaluations were performed at selected times throughout the study. […] Participants were closely monitored for adverse events (AEs). […]

[3] = Phase 1 multiple ascending dose study (Part C), blood pressure in healthy Japanese participants; assay type: in vivo, human
Protocol: as §1
Part C was a MAD study in 3 sequential dose escalation cohorts (30 mg BID, 60 mg BID, and 90 mg BID) of 8 healthy Japanese participants (6 active+2 placebo) each. Eligible participants in Cohorts C1 to C3 received study drug (Compound A or placebo) administered orally for 14 days.
Physical examinations, vital sign measurements (including orthostasis testing in Cohort A6, Cohort B3 to B5, and C1 to C3 at selected time points), 12-lead electrocardiogram (ECG), and clinical laboratory evaluations were performed at selected times throughout the study. In addition, Holter monitoring was performed for the first 24 hours post dose on Day 1 in Part A (not in FE/pH cohort), and also for the first 24 hours post dose on Day 1 and Day 14 in Parts B and C. Participants were closely monitored for adverse events (AEs). Blood samples were collected for up to 14 days (follow-up visit) after (last) study drug administration for PK analysis. In addition, blood and urine were collected for exploratory biomarker assessments and for biobanking of samples for potential analyses. Urine was collected for potential PK analysis for up to 96 hours after a single dose of Compound A or placebo was administered in the SAD part, and for up to 24 hours after the first (morning) dose of study drug on Day 1 and for up to 24 hours after the last (morning) dose of study drug on Day 14 in the MAD parts.

participants with IPF = test: Phase 2 study, IPF cohort: efficacy (ppFVC, FVC); assay type: in vivo, human; details: for Rate of change in ppFVC over 26 weeks: 60-mg arm
Protocol: A total of 278 participants with IPF were randomized and 276 participants were treated as of theinal analyses data cut-off (4 Aug. 2022). Male and female participants ≥40 years of age with IPF and percent predicted forced vital capacity (ppFVC) ≥40% and percent predicted DLCO (ppDLCO) ≥25%; diagnosed within 7 years of screening; having a centrally-read chest HRCT obtained at screening that was consistent with UIP or probable UIP, or having a lung biopsy consistent with UIP were eligible to enter the study. The mean baseline ppFVC for all subjects was 76.5%. In the primary IPF cohort, participants were randomized (1:1:1) to receive 30 mg or 60 mg Compound A or placebo (PBO) twice daily for 26 weeks. Participants were stratified by standard of care (SoC) IPF therapy (pirfenidone versus nintedanib versus none) and region (Japan versus Rest of World) at randomization.
The primary objective of the study was to determine the rate of change in ppFVC from baseline to Week 26. The primary objective was evaluated with a two estimand framework to handle the intercurrent event of dose reduction to 10 mg BID or matching PBO when pre-specified low BP criteria is met. The primary estimand is adopted to estimate treatment effect when dose reduction is implemented. The supplementary estimand is adopted to estimate the effect of treatment without dose reduction.
Analysis Strategy: The primary estimand was to evaluate the efficacy of Compound A at 30 mg or 60 mg twice daily, compared to PBO in IPF participants who met the enrollment criteria, with or without use of SoC. The rate of decline in ppFVC (%) from baseline to Week 26 was compared using the difference between each dose and PBO as a population level summary regardless of dose reduction or treatment discontinuation for any reason (treatment policy strategy).
Analysis Strategy: The supplementary estimand for the primary objective is to evaluate the efficacy of Compound A at 30 mg or 60 mg twice daily without dose reduction, compared to the PBO in IPF subjects who met the enrollment criteria, with or without use of SoC. The rate of decline in ppFVC (%) from baseline to Week 26 has been compared using the difference between each dose and PBO as a population level summary regardless of treatment discontinuation for any reason (treatment policy strategy). In the event of dose reduction, data collected after dose reduction will not be considered relevant to the treatment effect of interest and therefore, will be treated as missing (while-on-treatment strategy).

participants with PPF = test: Phase 2 study, PPF cohort: efficacy (ppFVC, FVC); assay type: in vivo, human; details: for Relative reduction: 60 mg v placebo
Protocol: (§2) A total of 123 participants with PPF were randomized. Participants (age ≥21 years) were randomized (1:1:1) to receive 30 mg or 60 mg Compound A or PBO twice daily for 26 weeks. […] Immunosuppressive medications (mycophenolate mofetil, mycophenolic acid, azathioprine and/or tacrolimus) were permitted only if dosing is stable for ≥6 months prior to screening. If receiving antifibrotic agents pirfenidone or nintedanib, patients had to receive a stable dosage for ≥3 months prior to screening and during the screening period; if not receiving pirfenidone or nintedanib, patients had to be naive to both drugs or not have received either 4 weeks prior to Day 1. A total of 47 (38.2%) subjects were receiving antifibrotic treatment (with or without immunosuppression therapy). Of those subjects, 34 were being treated with nintedanib and 13 with pirfenidone. Participants were stratified by usual interstitial pneumonia (UIP) pattern (presence versus absence) and background therapy (antifibrotics +/−ILD-targeted immunosuppression versus ILD-targeted immunosuppression alone versus none).UIP pattern was present in 52% of subjects and unclassifiable ILD was he most common disease categorization.
The study was not powered to detect statistical significance (no formal testing). No target effect size was defined in the study design. There were two estimand approaches for analysis:
Treatment Policy: Effect of treatment with dose reduction as part of treatment regimen.
While-On Treatment: Effect of treatment without dose reduction.
The main efficacy endpoint, rate of FVC decline (in […]) from baseline to wk-26 in the PPF cohort, was estimated using a linear mixed-effects model utilizing all FVC timepoints. It was analyzed under a primary estimand (utilizing all data, treatment policy strategy), and under supplementary estimand (utilizing all data up to the point of dose reduction, while-on-treatment strategy). Analysis was performed in the overall population as well as in sub-groups by 1) background anti-fibrotic treatment or not 2) UIP radiographic pattern (presence or not). The mean baseline ppFVC was 66.700 for the PPF cohort.

[4] = Phase 2 study, PPF cohort: safety and blood pressure reduction criteria; assay type: in vivo, human
Protocol: as §2
Patient is experiencing any of the following, confirmed by retest within 15 minutes: • Seated systolic blood pressure <85 mmHg • Seated diastolic blood pressure <55 mmHg • Orthostatic hypotension
Patient is experiencing symptoms that, in the investigator's opinion, could be associated with a reduction in blood pressure and is also experiencing at least one of the following, confirmed by retest within 15 minutes: • Seated systolic blood pressure <100 mmHg or seated diastolic blood pressure <60 mmHg • Decrease of seated systolic blood pressure of ≥20 mmHg from the previous visit or decrease of seated diastolic blood pressure of ≥10 mmHg from the previous visit • Orthostatic hypotension • Orthostatic tachycardia

Cc1noc(-c2ccc(-c3ccc(C4(C(=O)O)CC4)cc3)cc2)c1NC(=O)O[C@H](C)c1ccccc1 [Compound B, sodium (R)-1-(4′-(3-methyl-4-(((1-phenylethoxy)carbonyl)amino)isoxazol-5-yl)-[1,1′-biphenyl]-4-yl)cyclopropane-1-carboxylate]
Normalization of blood pressure ([1]; multiple days of dosing (FIG. 6)): ~3 days | Start of drop in blood pressure post dose ([1]; single ascending dose (FIG. 5)): ~1.25 h

COC(=O)c1ccc2c(c1)NC(=O)/C2=C(\Nc1ccc(N(C)C(=O)CN2CCN(C)CC2)cc1)c1ccccc1 [nintedanib]
Decline in lung function (patients with IPF): significantly reduce the decline in lung function | Progression of lung fibrosis vs placebo (annual rate of decline in FVC) (patients with PPF): slower progression of lung fibrosis than those who received placebo

CCCN(C)C(=O)OCc1c(-c2ccc(O[C@H]3CCC[C@H](C(=O)O)C3)c(C)n2)nnn1C [Compound A, (1S,3S)-3-((2-methyl-6-(1-methyl-5-(((methyl(propyl)carbamoyl)-oxy)methyl)-1H-1,2,3-triazol-4-yl)pyridin-3-yl)oxy)cyclohexane-1-carboxylic acid]
Magnitude of BP reductions with repeated dosing [2]: no clear changes in the magnitude of BP reductions with repeated dosing | DBP, Baseline ([3]; Japanese MAD 30 mg BID (C1)): 8.8 ± 5.12 mmHg | DBP, Reduction ([3]; Japanese MAD 30 mg BID (C1)): 72.2 ± 3.87 mmHg | DBP, Baseline ([3]; Japanese MAD 60 mg BID (C2)): 8.2 ± 10.40 mmHg | DBP, Reduction ([3]; Japanese MAD 60 mg BID (C2)): 73.8 ± 6.18 mmHg | DBP, Baseline ([3]; Japanese MAD 90 mg BID): 8.0 ± 8.22 mmHg | DBP, Reduction ([3]; Japanese MAD 90 mg BID): 70.7 ± 7.58 mmHg | Dose dependence of BP reduction ([3]; Japanese MAD cohorts): no clear Compound A dose-dependent BP reduction trend | Treatment response vs PBO (rate of decline of ppFVC and FVC) (participants with IPF; 60 mg BID, Week 26, overall population): favorable treatment responses | Relative treatment benefit vs PBO (ppFVC) (participants with IPF; 60 mg BID, primary estimand, not on background SoC): 113% | Relative treatment benefit vs PBO (ppFVC) (participants with IPF; 60 mg BID, primary estimand, on background SoC): 39% | Relative treatment benefit vs PBO (ppFVC) (participants with IPF; 60 mg BID, supplementary estimand, not on background SoC): 123% | Relative treatment benefit vs PBO (ppFVC) (participants with IPF; 60 mg BID, supplementary estimand, on background SoC): 44% | Rate of change in ppFVC over 26 weeks (participants with IPF; treatment policy strategy): −1.2% | Rate of change in ppFVC over 26 weeks (participants with IPF; while-on-treatment strategy): −1.1% | Treatment difference in rate of change in ppFVC, 60-mg arm vs placebo (participants with IPF; treatment policy strategy): 1.4% | Treatment difference in rate of change in ppFVC, 60-mg arm vs placebo (participants with IPF; while-on-treatment strategy): 1.8% | Relative reduction (participants with PPF; Anti-fibrotic subgroup): 75% | Relative reduction (participants with PPF; No antifibrotic subgroup): 63% | Relative reduction (participants with PPF; Non UIP subgroup): 84% | Relative reduction (participants with PPF; UIP subgroup): 54% | Relative reduction (participants with PPF; overall): 69% | Rate of change in ppFVC over 26 weeks (participants with PPF; 30-mg arm, treatment policy strategy): −2.7% | Rate of change in ppFVC over 26 weeks (participants with PPF; 30-mg arm, while-on-treatment strategy): −2.5% | Rate of change in ppFVC over 26 weeks (participants with PPF; 60-mg arm, treatment policy strategy): −1.1% | Rate of change in ppFVC over 26 weeks (participants with PPF; 60-mg arm, while-on-treatment strategy): −1.3% | Treatment difference 60 mg v placebo in rate of decline in ppFVC (participants with PPF; Non UIP subgroup, baseline to Week 26): 3.80 | Treatment difference in rate of change in ppFVC, 60-mg vs placebo (participants with PPF; treatment policy strategy): 3.2% | Treatment difference in rate of change in ppFVC, 60-mg vs placebo (participants with PPF; while-on-treatment strategy): 2.9% | Low BP thresholds ("events") ([4]; 30 mg): 30% | Deaths due to TEAEs ([4]; 30 mg (n = 40)): 0 no. | Dizziness ([4]; 30 mg (n = 40)): 0 no. | Hypertension ([4]; 30 mg (n = 40)): 0 no. | Deaths due to TEAEs ([4]; 60 mg (n = 42)): 0 no. | Discontinuations due to TEAEs ([4]; 60 mg (n = 42)): 0 no. | Dyspnea ([4]; 60 mg (n = 42)): 0 no. | Rash ([4]; 60 mg (n = 42)): 0 no. | Vomiting ([4]; 60 mg (n = 42)): 0 no.

Cc1ccc(=O)n(-c2ccccc2)c1 [pirfenidone]
Decline in lung function (patients with IPF): significantly reduce the decline in lung function
